Results taken from patent US20100331233A1, “CRYSTAL OF XPA AND ERCC1 COMPLEX AND USES THEREOF” (priority 2007, published 2010).
Entries after “also recorded” stand apart in the source; their conditions may differ. No end group written: not given here.

Molecular target: T1, central domain of ERCC1 (ERCC196-214) (Homo sapiens, UniProt P07992)
T1 construct: His6 (N); made in house; host or cells: E. coli BL21(DE3)
T1 sequence (P07992 96-214): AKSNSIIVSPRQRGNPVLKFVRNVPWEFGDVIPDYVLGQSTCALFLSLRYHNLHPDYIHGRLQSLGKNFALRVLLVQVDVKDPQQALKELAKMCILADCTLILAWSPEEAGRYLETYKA
Assay: Competitive binding equilibrium titrations, fluorescence anisotropy of 6FAM-labeled single-stranded 40mer DNA
Protocol: Binding of a 6FAM-labeled single-stranded DNA 40mer to the central domain of ERCC1 was monitored by fluorescence polarization of the labeled DNA. DNA binding activity is plotted as a function of added XPA67-80 inhibitor. The theoretical curve given by Eq. 9 (solid line) corresponds to the best fit of the data to the dissociation equilibrium constant of 300 nM for the ERCC1-XPA complex.
Competitive binding equilibrium titrations. The equilibrium titrations were performed in a binding buffer containing 20 mM Tris, pH 8.0, 20 mM NaCl, 2 mM betamercaptoethanol. The concentrations of single-stranded 5′ 6-FAM-labeled DNA (5′-CCGGTGGCCAGCGCTCGGCG(T)20; SEQ ID NO:9) and ERCC196-214 were 50 nM and 2.33 μM, respectively, the concentration of the XPA peptide was varied from 0 to 30 μM (FIG. 7). Fluorescence anisotropy measurements were performed as previously reported (Tsodikov et al., 2005). Increasing XPA peptide concentration above 30 μM caused an increase in fluorescence anisotropy and quenching of fluorescence due to nonspecific interactions with the peptide, observed in the presence or absence of ERCC1 (data not shown).
The simplest binding model used in the data analysis consisted of two competitive equilibria, binding of XPA peptide and of the single-stranded 6FAM-labeled 40-mer DNA to the central domain of ERCC1. This model is consistent with the fact that at sufficiently high XPA concentration, the fluorescence anisotropy signal approaches that of unbound DNA. Therefore the two binding equilibria could be written as:
where E, D, X represent the ERCC1, DNA and XPA species, respectively. ED and EX represent ERCC1-DNA and ERCC1-XPA complexes, and KDNA and KXPA are the observed equilibrium association constants, defined in terms of the equilibrium concentrations of the species from Eqs. (2a) and (2b) as:
The approximation made in Equation (4b) is due to the large excess of ERCC1 over DNA at the experimental conditions. It was assumed that each single-stranded 40-mer DNA oligonucleotide contains only one binding site for ERCC1. Because the central domain of ERCC1 occludes 10-15 nucleotides upon binding DNA (1), with a reasonable approximation, a maximum of 2-3 ERCC1 molecules could simultaneously bind to one DNA molecule without significant cooperativity. In this analysis, a value of (KDNA)−1=1.5 μM was used, obtained from the direct titration of ERCC1 at constant concentration (50 nM) of the same DNA oligomer, using the same single site approximation (1). Therefore the value of the equilibrium binding constant for XPA-ERCC1 complex formation, KXPA, should be unaffected by the stoichiometry of ERCC1-DNA binding.
The system of Eqs. 4a, 4b and 4c yields expressions for [E], [X] and [D], which are then used to determined the fraction of bound DNA species, f, as follows:
The observed fluorescence anisotropy, r, is then given by
where r0 and rmax are fluorescent anisotropy values of unbound and fully bound DNA, respectively. […]
XPA competes with single-stranded DNA for binding to ERCC1. Because XPA binds in the groove on ERCC1 (FIG. 2) that was previously implicated in DNA binding activity (Tsodikov et al., 2005), it was determined whether or not XPA competes with single-stranded DNA for binding to ERCC1. DNA binding activity was measured by monitoring fluorescence anisotropy, using single-stranded 40mer oligonucleotide labeled on the 5′ end with 6-carboxyfluorescein. […]

KIIDTGGGFILEEE [XPA67-80] was tested, and the “affinity for central domain of ERCC1 relative to single stranded DNA” value was “approximately 3 fold”, the Kd (best fit of competition titration to Eq. 9, 50 nM DNA, 2.33 μM ERCC196-214, read-out: dissociation equilibrium constant (Kd) of the XPA-ERCC1 complex) was 300 nM and the “EC50 for binding of XPA67-80” value (competition with 6FAM single-stranded 40mer DNA, accurate measurement precluded by quenching) was “in the micromolar range”. For the same sequence, the “competition with single-stranded DNA for binding to ERCC1” value (fluorescence anisotropy / polarization) was “does compete with DNA for binding to ERCC1; also recorded: competitive inhibitor” and the “binding of peptide to DNA” value (single-stranded 40mer, fluorescence anisotropy) was “does not detectably bind to DNA”.
